Results reported in PubChem BioAssay AID720587 (Broad Institute, 2013).
The source made the active and inactive calls.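 The calls were made as follows: active = fitted curve reaches -35% activity change at a concentration below twice the top valid dose tested; inactive = the rest, including effects opposite to the expected direction.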

Experiment: EWS/Fli1-dependent A673 cell killing, confirmation, CellTiter-Glo luminescence, cherry-pick retest (AID 720587)
Conditions: A673 Ewing sarcoma viability, CellTiter-Glo ATP luminescence, 72 h

SMILES | activity change, negative = cytotoxicity (at 26 µM (top of the series)) | activity change, negative = cytotoxicity (at 23.5 µM (top of the series))
COc1ccc(Nc2ncnc3ccc(Br)cc23)c(OC)c1 | -5.17% (inactive) | 
CN(C)Cc1c(O)ccc2c1O/C(=C\C=C\c1ccccc1)C2=O | -7.01% (inactive) | 
C/C=C/c1ccc(C2[C@@H]3CN(C(=O)Cc4ccccc4)C[C@H]2N3)cc1 (some centres undefined) | -1.54% (inactive) | 
CN(C(=O)COC(=O)c1cc(-c2ccccc2Cl)nc2ccccc12)C1CCS(=O)(=O)C1 (centres undefined) | -1.76% (inactive) | 
N#C[C@H]1N[C@H](CO)[C@H]1c1ccc(C#Cc2ccccc2F)cc1 |  | 3.42% (inactive)
CC(=O)c1ccc(N=C2C(=O)Nc3ccccc32)cc1 | -4.29% (inactive) | 
O=C1Nc2ccccc2C1=Nc1ccccc1-c1ccccc1 | -7.56% (inactive) | 
CCCc1nc2ccc(NC(=O)c3cccs3)cc2c(=O)n1Cc1ccccc1Cl | 3.49% (inactive) | 
Cc1ccc(-c2ccc3c(c2)O[C@@H](CN(C)C(=O)Nc2ccc(F)cc2)[C@H](C)CN([C@@H](C)CO)S3(=O)=O)cc1 | 0.801% (inactive) | 
O=c1c2ccccc2oc2cc(C#CC3(O)CCCCC3)ccc12 | 6.95% (inactive) | 
CC(=O)c1ccc(N=Nc2ccc(C)cc2)cc1 | 2.05% (inactive) | 
O=C(O)c1ccc(N/N=C/c2c(F)cccc2Cl)cc1 | -4.19% (inactive) | 
COc1ccc(NC(=O)N(C)[C@H]2C[C@H]3c4[nH]c5ccccc5c4CCN3C(=O)[C@H]2CO)cc1 | 5.76% (inactive) | 
Cc1ccccc1N=CC1=C(O)c2ccccc2C1=O | -6.09% (inactive) | 
O=C(Nc1ccc(OC(=O)N2CCCCC2)cc1)N1CCOCC1 | 1.28% (inactive) | 
Nc1ccc(-c2cc3ccccc3c(=O)o2)cc1 | -2.08% (inactive) | 
Cc1ccc(Cl)cc1NC(=O)Cn1cc(C(F)(F)F)cc(Cl)c1=O | 10.1% (inactive) | 
Cc1ccc(Cc2c(-c3ccco3)nc3c(C)cc(Br)cn23)cc1 | 2.77% (inactive) | 
Cc1cc(C(=O)CN2C(=O)c3ccccc3S2(=O)=O)c(C)n1C(C)C | 21.4% (inactive) | 
c1ccc(-c2ccc([C@H]3[C@H]4CNC[C@@H]3N4Cc3cc(-c4ccccc4)on3)cc2)cc1 | -11.9% (inactive) | 
COc1cc(OC)cc(-c2cc3nc(C)c(CCC(=O)NCc4ccccc4)c(C)n3n2)c1 | 6.68% (inactive) | 
CC(=O)Nc1cc(C(=O)NCc2ccco2)ccc1Sc1ccc(F)cc1 | 8.55% (inactive) | 
Cc1ccsc1/C=N/Nc1ccc(C(=O)O)cc1 | 5.43% (inactive) | 
Nc1ccc(-c2cc3ccccc3oc2=O)cc1 | 3.89% (inactive) | 
COc1ccc(/C=N/Nc2ccc(C(=O)O)cc2)cc1Br | -2.31% (inactive) | 
COc1ccc(C(=O)OCC(=O)Nc2ccc(Cl)c(C(F)(F)F)c2)c(OC)c1OC | 2.74% (inactive) | 
Cc1noc(C)c1NC(=O)Nc1ccc2c(c1)CC(=O)N([C@H](C)CO)C[C@@H](C)[C@@H](CN(C)Cc1ccc(Cl)c(Cl)c1)O2 | 7.25% (inactive) | 

SMILES | activity change, negative = cytotoxicity (at 26 µM (top of the series)) | activity change, negative = cytotoxicity (at 23.5 µM (top of the series))
Cc1ccc(NC(=O)COC(=O)c2ccc3c(c2)OCO3)cc1S(=O)(=O)N1CCCCC1 | -4.65% (inactive) | 
Cc1ccc(/C=N/Nc2ccc3ccccc3n2)o1 | -3.75% (inactive) | 
Cc1ccc(C(CC(=O)O)Nc2nc(N3CCOCC3)nc(N3CCOCC3)n2)cc1 (centres undefined) | 16.9% (inactive) | 
COc1cc(/C=N/NS(=O)(=O)c2ccc(C)cc2)ccc1OCc1cccc(C(=O)O)c1 | -3.14% (inactive) | 
COc1ccccc1CNC(=O)C[C@@H]1CC[C@H]2[C@@H](COC[C@H](O)CN2C(=O)Nc2ccc(C(F)(F)F)cc2)O1 | -9.47% (inactive) | 
CCNC(=O)[C@@H]1[C@@H](CO)[C@@H]2Cn3c(ccc(C4=CCCCC4)c3=O)[C@H]1N2CC | -1.43% (inactive) | 
Nc1ccc(Oc2ccccc2-c2ccccc2)cc1 | -6.58% (inactive) | 
C[C@@H]1CN([C@@H](C)CO)C(=O)Cc2cc(NC(=O)Cn3cnnn3)ccc2O[C@@H]1CN(C)Cc1ccc(Oc2ccccc2)cc1 | 8.72% (inactive) | 
CCCc1cc(=O)oc2c3c(c4c(c12)OC(C)(C)C=C4)OC(C)C(C)C3O (centres undefined) | -3.35% (inactive) | 
CCCNC(=O)N1[C@H](C#N)[C@H](c2ccc(C#Cc3ccc(F)cc3)cc2)[C@H]1CO | -13.6% (inactive) | 
O=C(Cc1nn[nH]n1)c1ccccc1O | 0.33% (inactive) | 
Cc1cc(-c2nc3ccccc3s2)ccc1N | -21.8% (inactive) | 
CCCCOc1ccc(NC(=O)C(=O)NCCCn2ccnc2)cc1 | -2.77% (inactive) | 
Cc1ccccc1N=Nc1c(O)n(C)c2ccccc12 | -1.37% (inactive) | 
COc1ccc(C(=O)NCCNc2nc3cc(C)cc(C)c3cc2C#N)c(OC)c1 | 0.961% (inactive) | 
O=C(CN1C(=O)c2ccccc2S1(=O)=O)c1ccc(F)cc1 | -6.39% (inactive) | 
C[C@H]1CN([C@@H](C)CO)C(=O)c2cc(NS(=O)(=O)c3ccc(Cl)cc3)ccc2O[C@H]1CN(C)Cc1ccc(Cl)c(Cl)c1 | 4.93% (inactive) | 
C[C@@H]1CN([C@H](C)CO)C(=O)c2cc(NS(=O)(=O)c3ccc(Cl)cc3)ccc2O[C@@H]1CN(C)Cc1ccc(Cl)c(Cl)c1 | -17.2% (inactive) | 
COC(=O)C[C@@H]1CC[C@@H]2[C@H](COc3ccc(NC(=O)c4ccccc4)cc3C(=O)N2C)O1 | -5.14% (inactive) | 
C=CCOC(=O)c1sc(NC(=O)c2ccc(OC)cc2)nc1C | -13% (inactive) | 
CCOC(=O)Cc1ccc(NC(=O)c2ccccc2Br)cc1 | -0.788% (inactive) | 
CCCn1nnc(NC(=S)NC(=O)C(C)(C)C)n1 | -3.83% (inactive) | 
C=CC[n+]1c(-c2ccc(C)cc2)csc1Nc1ccc(NC(C)=O)cc1 | -9.93% (inactive) | 
COc1ccc(S(=O)(=O)N=Nc2c(O)[nH]c3ccccc23)cc1 | 8.74% (inactive) | 
O=C(O)c1cccc(N/N=C/c2ccc(OC(F)(F)F)cc2)c1 | 10.4% (inactive) | 
COc1cccc(S(=O)(=O)N(C)C[C@H]2OCc3cnnn3CCCC(=O)N([C@@H](C)CO)C[C@H]2C)c1 | 0.226% (inactive) | 
CC(C)c1ccccc1NC(=O)COC(=O)CCN1C(=O)/C(=C\C=C\c2ccccc2)SC1=S | -0.202% (inactive) | 

SMILES | activity change, negative = cytotoxicity (at 26 µM (top of the series)) | activity change, negative = cytotoxicity (at 23.5 µM (top of the series))
C[C@@H]1CCCCO[C@@H](CN(C)C(=O)Cc2ccccc2)[C@@H](C)CN([C@@H](C)CO)C(=O)c2cc(NS(=O)(=O)c3ccc(F)cc3)ccc2O1 | 7.89% (inactive) | 
Nc1ccc2c(c1)OC1(CCCC1)O2 | -14.9% (inactive) | 
CCN(CC)C(=O)CN1C(=O)C(=O)c2ccccc21 | -0.157% (inactive) | 
C[C@@H]1CN([C@H](C)CO)C(=O)c2cc(NC(=O)CCCCCC(=O)Nc3ccccc3N)ccc2O[C@H]1CN(C)S(=O)(=O)c1ccc(Cl)cc1 | -2.24% (inactive) | 
CC(=O)Nc1ccc(S(=O)(=O)Nc2ccc(N3CCCCC3)cc2)cc1 | -16.3% (inactive) | 
CCOC(=O)C1CCCCN1C(=O)CCc1c(C)nc2cc(-c3ccccc3)nn2c1C (centres undefined) | -3.12% (inactive) | 
CC(=O)c1ccc(N(C(=O)Cn2nnc3ccccc32)C(C(=O)NCc2ccccc2)c2ccccn2)cc1 (centres undefined) | 3.66% (inactive) | 
COc1ccc(/C=C2\SC(=O)N(CCCC(=O)Nc3ccc(C(=O)O)cc3)C2=O)cc1 | -0.477% (inactive) | 
Cc1noc(C)c1NC(=O)Nc1ccc2c(c1)CC(=O)N([C@@H](C)CO)C[C@@H](C)[C@@H](CN(C)Cc1ccc(Cl)c(Cl)c1)O2 | 0.825% (inactive) | 
O=C(O)CN1C(=O)/C(=C\c2ccccc2OCc2ccc(Cl)cc2Cl)SC1=S | -0.632% (inactive) | 
COC(=O)Cc1ccc(NC(=O)c2ccccc2Cl)cc1 | 5% (inactive) | 
CCc1c(C(=O)NN2C(=O)C3CCCCC3C2=O)csc1C (centres undefined) | -1.99% (inactive) | 
O=C(CNC(c1ccccc1)c1ccccc1)Nc1ccccc1-c1ccccc1 | -1.93% (inactive) | 
COC(=O)C[C@@H]1CC[C@@H]2[C@@H](COc3ccc(NC(=O)Cc4cccs4)cc3C(=O)N2C)O1 | -23.4% (inactive) | 
Cc1ccc(/C=C2\SC(=S)N(CCC(=O)NNC(=O)c3ccccc3O)C2=O)cc1 | 6.17% (inactive) | 
CCOc1ccc(-c2cc(CCCC(=O)NCc3ccc(C)cc3)no2)cc1 | -9.1% (inactive) | 
COC(=O)c1cccc(NC(=O)NC(=O)c2ccc(Cl)cc2)c1 | -6.08% (inactive) | 
CC(C)CN(C(=O)CN1CCOCC1)c1c(N)n(CC(C)C)c(=O)[nH]c1=O | -1.6% (inactive) | 
O=C(CNC(=O)Cc1ccccc1)N=Nc1c(O)n(Cc2ccc3c(c2)OCO3)c2ccccc12 | -1.52% (inactive) | 
O=C(C[C@@H]1C[C@H]2c3cc(NC(=O)CC4CC4)ccc3O[C@H]2[C@H](CO)O1)NCc1ccccc1F | -23.9% (inactive) | 
O=C(Nc1cccc(Oc2ccc3c(c2)C(=O)NC3=O)c1)c1cccs1 | -6.77% (inactive) | 
C[C@H](CO)N1C[C@H](C)[C@H](CN(C)Cc2ccc(C(F)(F)F)cc2)Oc2c(NS(=O)(=O)c3ccc(Cl)cc3)cccc2C1=O | 4.37% (inactive) | 
COC(=O)c1c(C)[nH]c(/C=N/Nc2ccccc2)c1C | 5.78% (inactive) | 
COc1ccc(NC(=O)c2cc3ccccc3oc2=O)cc1 | -20.8% (inactive) | 
COc1ccc(N=C(NN)c2ccc3ccccc3n2)cc1 | -15.8% (inactive) | 
